Legend:
[1] = tested on: human neuronal calcium channel α1D (SEQ ID No. 1), α2 (SEQ ID No. 11) and β1 (SEQ ID No. 9) subunits, stably expressed in HEK 293 cells; assay: Whole-cell patch clamp of barium currents in stably transfected HEK 293 cells; settings: Bay K 8644 1 µM
[2] = tested on: human neuronal calcium channel α1D and α2 subunits, expressed in Xenopus laevis oöcytes; assay: Two-electrode voltage clamp of barium currents in Xenopus laevis oöcytes injected with α1D and α2 transcripts; assay type: cell-based; settings: Bay K 8644; very small currents (15-30 nA); holding potential -90 mV
Description: Plasmids pVDCC III.RBS(A), containing of pcDNA1 and the α1D cDNA that begins with a ribosome binding site and the eighth ATG codon of the coding sequence (see Example III.A.3.d), plasmid pHBCaCHα1A containing of pcDNA1 and an α2 subunit cDNA (see Example IV), and plasmid pHBCaCHβ1bRBS (A) containing pcDNA1 and the β1 DNA lacking intron sequence and containing a ribosome binding site (see Example III), were linearized by restriction digestion. The α1D cDNA- and α2 subunit-encoding plasmids were digested with XhoI, and the β1 subunit-encoding plasmid was digested with EcoRV. The DNA insert was transcribed with T7 RNA polymerase.

[3] = tested on: human neuronal calcium channel α1D (SEQ ID No. 1), α2 (SEQ ID No. 11) and β1 (SEQ ID No. 9) subunits, expressed in HEK 293 cells; assay: Whole-cell patch clamp of barium currents in transiently transfected HEK 293 cells; assay type: cell-based; settings: 1 µM Bay K 8644
Experimental: Pflugers Arch. 391:85-100].
Two days after transient transfection of HEK 293 cells with α1, α2 and β1 subunit-encoding cDNA and the lacZ gene, individual transfectants were assayed for voltage-dependent barium currents. The currents in nine transfectants were recorded.

[4] = tested on: human neuronal calcium channel α2 and β1 subunits, expressed in Xenopus laevis oöcytes; assay: Two-electrode voltage clamp of barium currents in Xenopus laevis oöcytes injected with α2 and β1 transcripts (no α1D; comparison); assay type: cell-based; settings: Bay K 8644; n=11

Question: What does the source list for `COC(=O)C1=C(C)NC(C)=C([N+](=O)[O-])C1c1ccccc1C(F)(F)F` (stereo not drawn) [Bay K 8644]?
Answer: barium current during application of the compound ([1]; depolarized to -10 mV from holding potential -90 mV, approximately 35pA in its absence): approximately 75 pA; shift of the current-voltage relation ([1]; same cell, series of depolarizing voltages): about -10 mV; response of barium currents to the compound [2]: little or no response; effect on inward barium current ([3]; holding potential -90 mV, 15 mM Ba2+ bath, one transfectant): significantly enhanced in magnitude; largest inward barium current in the presence of the compound ([3]; membrane depolarized to 0 mV from holding potential -90 mV): -160 pA; sensitivity of inward barium currents to the compound [4]: insensitive

Reference: patent publication EP1469074B1, “Human calcium channel compositions and methods” (priority 1991, dated 1993)
